Consider 4 molecules from patent publication US5395610A, “Agents for potentiating the effects of antitumor agents and combating multiple drug resistance” (Burroughs-Wellcome Co., priority 1989, dated 1995).

A short description of one data set: in vitro. Conditions: hamster, cho auxb1 cells. It counts as cell-based, Chinese hamster.
Data set [1] is described as follows: In vitro cytotoxicity / potentiation of Actinomycin D in Chinese hamster ovary cells, drug resistant C5S32 (MTT). It is filed as cell-based. As to conditions: hamster, cho c5s32 cells, fraction of untreated cultures (1.00), read-out: Cytotoxicity, normalized absorbance, Drug Resistant C5S32, 0 (no Act D); for viability at 96 h, 1 µM: 1 μM potentiating agent alone; for viability at 96 h, 10 µM: 10 μM potentiating agent alone.

In data set [2] the test system is Chinese hamster ovary (CHO) cells, drug resistant C5S32. Described as above. It counts as cell-based. As to conditions: 96 h, fraction of Act D alone (1.00).
Data set [3] can be described thus: In vitro cytotoxicity / potentiation of Actinomycin D in human KB epidermoid carcinoma cells, wildtype KB 3-1 (MTT). It counts as cell-based. Conditions: human, kb 3-1 cells, fraction of untreated cultures, read-out: Cytotoxicity, normalized absorbance, Wildtype KB 3-1, 0 (no Act D); for viability at 96 h, 1 µM: 1 μM potentiating agent alone; for viability at 96 h, 10 µM: 10 μM potentiating agent alone.

Data set [4] relates to human KB epidermoid carcinoma cells, wildtype KB 3-1. The data set is described as above. It counts as cell-based. As to conditions: 96 h, fraction of Act D alone.
Data set [5] in a line: In vitro cytotoxicity / potentiation of Actinomycin D in human KB epidermoid carcinoma cells, drug resistant KB V-1 (MTT). It counts as cell-based. Conditions: human, kb v-1 cells, fraction of untreated cultures, read-out: Cytotoxicity, normalized absorbance, Drug Resistant KB V-1, 0 (no Act D); for viability at 96 h, 1 µM: 1 μM potentiating agent alone; for viability at 96 h, 10 µM: 10 μM potentiating agent alone.

Data set [6] relates to human KB epidermoid carcinoma cells, drug resistant KB V-1. The description is as above. It counts as cell-based. As to conditions: 96 h, fraction of Act D alone.
The mark [7] stands for this setting: 1 μM potentiating agent + Act D 0.5 μM.
Setting [8] is: 10 μM potentiating agent + Act D 0.5 μM.
The mark [9] stands for this setting: 1 μM potentiating agent + Act D 0.1 nM.
Where [10] appears, read: 10 μM potentiating agent + Act D 0.1 nM.
The mark [11] stands for this setting: 1 μM potentiating agent + Act D 20 nM.
Setting [12] is: 10 μM potentiating agent + Act D 20 nM.

Turning to `CN(C)CC/C=C1/c2ccccc2COc2ccc(F)cc21` [(Q), (Z)-3-(2-fluoro-6,11-dihydrodibenz [b,e]oxepin-11-ylidene)-N,N-dimethylpropylamine], the viability at 96 h, 1 µM is 97% in “in vitro”, 53% in data set [1], 92% in data set [3] and 86% in data set [5]. Besides, the viability at 96 h, 10 µM in “in vitro” was 93%; in data set [1], 33%; in data set [3], 77%; in data set [5], 80%. The “Synergism with Actinomycin D, normalized absorbance, Drug Resistant C5S32, +ACT D” value is 0.69 in data set [2] (setting [7]) and 0.37 in data set [2] (setting [8]). In addition, the results for the “Synergism with Actinomycin D, normalized absorbance, Wildtype KB 3-1, +ACT D” value in data set [4] (setting [9]) and in data set [4] (setting [10]) were 0.91 and 0.78, respectively. Further, the “Synergism with Actinomycin D, normalized absorbance, Drug Resistant KB V-1, +ACT D” value in data set [6] (setting [11]) is recorded as 0.83; in data set [6] (setting [12]) it was 0.65.

`Brc1ccc2c(c1)/C(=C\CCN1CCCC1)c1cc(Br)ccc1OC2` [(R), (E)-1-[3-(2,9-dibromo-6,11-dihydrodibenz [b,e]-oxepin-11-ylidene)propyl]pyrrolidine]: the viability at 96 h, 1 µM in the data set “in vitro” turned out to be 99%; in data set [1] it was 50%; in data set [3], 78%; in data set [5], 87%. Also, the viability at 96 h, 10 µM in “in vitro” turned out to be 95%; in data set [1], 11%; in data set [3] it was 36%; in data set [5], 6%. For the same molecule, the “Synergism with Actinomycin D, normalized absorbance, Drug Resistant C5S32, +ACT D” value in data set [2] (setting [7]) turned out to be 0.52; in data set [2] (setting [8]) it was 0.11. Also, the results for the “Synergism with Actinomycin D, normalized absorbance, Wildtype KB 3-1, +ACT D” value in data set [4] (setting [9]) and in data set [4] (setting [10]) were 0.84 and 0.34, respectively. Besides, the “Synergism with Actinomycin D, normalized absorbance, Drug Resistant KB V-1, +ACT D” value worked out at 0.90 in data set [6] (setting [11]) and 0.02 in data set [6] (setting [12]).

`Fc1ccc2c(c1)/C(=C/CCN1CCCC1)c1ccccc1CO2` [(S), (E)-1-[3-(2-fluoro-6,11-dihydrodibenz [b,e]-oxepin-11-ylidene)propyl]pyrrolidine]: the viability at 96 h, 1 µM in “in vitro” came out at 91%; in data set [1] it was 100%; in data set [3], 77%; in data set [5] it was 89%. Also, the viability at 96 h, 10 µM in the data set “in vitro” is 88%; in data set [1] it was 100%; in data set [3], 67%; in data set [5] it was 72%. Moreover, the figures for the “Synergism with Actinomycin D, normalized absorbance, Drug Resistant C5S32, +ACT D” value in data set [2] (setting [7]) and in data set [2] (setting [8]) were 0.94 and 0.58, respectively. Further, the “Synergism with Actinomycin D, normalized absorbance, Wildtype KB 3-1, +ACT D” value is 0.79 in data set [4] (setting [9]) and 0.72 in data set [4] (setting [10]). For the same molecule, the “Synergism with Actinomycin D, normalized absorbance, Drug Resistant KB V-1, +ACT D” value in data set [6] (setting [11]) is recorded as 0.84; in data set [6] (setting [12]), 0.48.

Consider `Fc1ccc2c(c1)/C(=C\CCN1CCCC1)c1ccccc1CO2` [(T), (Z)-1-[3-(2-fluoro-6,11-dihydrodibenz [b,e]-oxepin-11-ylidene)propyl]pyrrolidine], for which the viability at 96 h, 1 µM was 100% in the data set “in vitro”, 100% in data set [1], 86% in data set [3] and 96% in data set [5]. Also, the viability at 96 h, 10 µM in the data set “in vitro” turned out to be 100%; in data set [1], 100%; in data set [3], 81%; in data set [5], 84%. For the same molecule, the “Synergism with Actinomycin D, normalized absorbance, Drug Resistant C5S32, +ACT D” value in data set [2] (setting [7]) was 1.00; in data set [2] (setting [8]) it was 0.53. The figures for the “Synergism with Actinomycin D, normalized absorbance, Wildtype KB 3-1, +ACT D” value in data set [4] (setting [9]) and in data set [4] (setting [10]) were 0.90 and 0.83, respectively. Also, the “Synergism with Actinomycin D, normalized absorbance, Drug Resistant KB V-1, +ACT D” value in data set [6] (setting [11]) came out at 0.92; in data set [6] (setting [12]), 0.64.
